From patent US20090220516A1, “Neuroprotection of retinal ganglion cells” (priority 2005, published 2009)
“And” between values parts separate entries of the source, which are not always exact repeats. Equal entries are not always repeated.

Tests used:
[1] = system: isolated ganglion cells; experiment: Glutamate release from isolated ganglion cells (GDH/NADH fluorescence); type: cell-based, rat
Method: (§1) Purification of ganglion cells using the panning procedure is based upon published methods (Hartwick et al., 2004). Neonatal rat retinas (PD 7-12) were dissected and incubated at 37° C. for 30 min in HBSS containing 15 U/mL papain, 0.2 mg/mL DLcysteine and 0.004% DNAse I (Worthington/Cooper, Lakewood, N.J.). The tissue was triturated in HBSS with 1.5 mg/ml ovomucoid (Worthington/Cooper, Lakewood, N.J.), 1.5 mg/ml BSA and 0.004% DNase I, centrifuged at 200 g for 11 minutes at room temperature, and cells were rewashed with 10 mg/ml ovomucoid-BSA solution. After centrifugation, cells were resuspended with PBS containing 0.2 mg/ml BSA and 5 μg/ml insulin and filtered through a Nitex mesh (Small Parts Inc, Miami Lakes, Fla.). […]
The measurement of glutamate was analogous to that used previously by the Haydon laboratory. […] NADH fluorescence is excited using a xenon arc lamp (100 watts) with a D360/10x exciter filter (Chroma Technology Corp., Brattleboro, Vt.), 510DRLP dichroic mirror (Omega Optical, Brattleboro, Vt.), and 515EFLP emission filter (Omega Optical). Images collected before, during and after the BzATP stimulus indicate the level of fluorescence. The percent increase in fluorescence, figured by dividing the change in fluorescence (ΔF) by the fluorescence level before stimulation (F0), represents the level of glutamate release. […]

[2] = system: retinal ganglion cells; experiment: Intracellular Ca2+ measurements (fura-2): BzATP-triggered Ca2+ elevation in ganglion cells from mixed retinal cultures; type: cell-based, rat
Method: (§2) Pups PD2-6 from untimed pregnant Long-Evan rats (Jackson Laboratory Inc., Bar Harbor, Me.) were back-labeled by the injection of FluoroGold derivative aminostilbamidine (Molecular Probes, Eugene, Oreg.) based upon standard protocols. […] Using a Hamilton syringe affixed to a micromanipulator, a needle was inserted 0.8 mm lateral from the midline and 0.8 mm anterior to Bregma's line and a total of 2.5 μl dye was delivered to each side at a depth of 2 mm and 1 mm. The needle was retracted after a delay of 2 min to allow dye absorption and the wound was closed with 2-3 sutures. Preliminary examination of labeled retinal whole mounts confirmed an even distribution of dye, showing all cells were stained 2 days after injection, with no further increase in the number of labeled cells in subsequent days. Consequently, retinas containing labeled ganglion cells were dissociated 2-6 days after injection. Animals were sacrificed by i.p. injection of 50/5 mg/kg Ketamine/Xylazine followed by an overdose, in accordance with University of Pennsylvania IACUC approved protocols and the ARVO Statement on the Use of Animals in Ophthalmic and Vision Research.
The retina was dissected from each globe, washed in sterile Hanks' balanced salt solution (HBSS, Gibco, Inc Invitrogen Corp., Carlsbad, Calif.), then incubated in HBSS containing activated papain (4.5 U/ml; Worthington Biochemical Corp., Lakewood, N.J.) for 12 minutes at 37° C. Retinas were washed twice and triturated 50 times with a 1-ml glass pipette to dissociate cells. Cells were plated onto twelve 12-mm coverslips previously coated with poly-L-lysine. The basic growth medium contained Neurobasal medium with 2 mM glutamine, 100 μg/ml gentamicin, 0.025 ml/ml B27 supplement (all Invitrogen Inc., Carlsbad, Calif.), 0.7% methylcellulose (Stemcell Technologies Inc., Vancouver, BC, Canada) and 2.5% rat serum (Cocalico Biologicals Inc., Reamstown, Pa.). Retinal cells were incubated at 37° C. with 5% CO2.
(§3) Unlabeled RGCs grown on coverslips for 24 hrs were loaded with 10 μM fura-2 and 2% pluoronic (Molecular Probes, Eugene, Oreg.) for 60-90 min at room temperature, rinsed and maintained in fura-2-free solution for 30 min before data acquisition began. The coverslips were mounted on a Nikon Diaphot inverted microscope and visualized with a 40× objective. […] To obtain Ca^2+ measurements, the field was alternatively excited at 340 nm and 380 nm with a scanning monocrometer and the fluorescence emitted >520 nm from a region of interest surrounding individual retinal ganglion cells was imaged with a CCD camera and analyzed (all Photon Technologies International, Inc., Lawrenceville, N.J.). Cells were perfused with a control solution at the start of Ca^2+imaging experiments containing (in mM) 105 NaCl, 4.5 KCl, 2.8 NaHepes, 7.2 Hepes acid, 1.3 CaCl2, 0.5 MgCl2, 5 glucose, 75 mannitol, pH 7.4. Drugs were dissolved into the control solution. Calibration was performed separately on each cell after the experiment by perfusing cells in the presence of 5 μM ionomycin and control solution (with 1.3 mM Ca2+) followed by ionomycin in the base solution without Ca^2+ and with the addition of 5 mM EGTA (pH 7.4). The 340/380 ratio was converted to Ca^2+ concentration as previously described. All experiments were performed at room temperature.
In Ca^2+ experiments, n refers to the number of responses tested. The BzATP concentration-response curve was fit with a standard exponential function y=y0+ae(−bx) using Sigmaplot software (SPSS Inc, Chicago, Ill.). The % block of Ca2+ elevations is defined as 100*(a−b)/a, where a is the response under control conditions and b is the response under experimental conditions. All materials are from Sigma Chemical Corp, (St. Louis, Mo.) unless otherwise indicated.

[3] = system: retinal ganglion cells; experiment: Cell viability studies: labeled retinal ganglion cells surviving after 24 hrs in mixed retinal cultures; type: cell-based, rat; conditions: for reduction in the number of dead cells / protection against cell death triggered by BzATP: 50 uM BzATP + 100 nM A3 agonist
Method: as §2
The retina was dissected from each globe, washed in sterile Hanks' balanced salt solution (HBSS, Gibco, Inc Invitrogen Corp., Carlsbad, Calif.), then incubated in HBSS containing activated papain (4.5 U/ml; Worthington Biochemical Corp., Lakewood, N.J.) for 12 minutes at 37° C. Retinas were washed twice and triturated 50 times with a 1-ml glass pipette to dissociate cells. Cells were plated onto twelve 12-mm coverslips previously coated with poly-L-lysine. […] Retinal cells were incubated at 37° C. with 5% CO2.
Drugs were added to the culture medium at the time when cells were plated onto coverslips. […] All counts were performed in a masked fashion. In experiments involving antagonist pretreatment, drugs were added to the medium at the time of plating. After preincubation at 37° C., stock concentrations of BzATP were added directly to the cells to give the final concentration shown.
Data are presented as mean±standard error of the mean. Significance was evaluated using a Student's unpaired t test, with a p value <0.05 signifying significance. For cell viability studies, the number of experiments, n, represents the number of coverslips from which 80 fields were measured and averaged. All values were normalized to the mean control level for that day's matched set of experiments to control for variation in plating efficiency.

[4] = molecular target: T1, human A2B receptors (Homo sapiens, UniProt P29275); conditions: cited from earlier work
T1 sequence (P29275 1-332): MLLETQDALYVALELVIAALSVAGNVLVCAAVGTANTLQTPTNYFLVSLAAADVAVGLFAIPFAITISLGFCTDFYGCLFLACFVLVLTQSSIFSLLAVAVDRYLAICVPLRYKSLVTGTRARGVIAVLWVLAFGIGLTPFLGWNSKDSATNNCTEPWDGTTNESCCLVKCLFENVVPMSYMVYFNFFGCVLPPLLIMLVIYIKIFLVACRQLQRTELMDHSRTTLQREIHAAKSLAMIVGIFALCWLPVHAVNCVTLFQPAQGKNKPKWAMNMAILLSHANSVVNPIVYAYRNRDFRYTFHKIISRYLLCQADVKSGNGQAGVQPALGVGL

[5] = system: isolated retinal ganglion cells; experiment: Intracellular Ca2+ measurements: BzATP-triggered Ca2+ elevation in isolated (immunopanned) retinal ganglion cells; type: cell-based, rat; conditions: 50 μM BzATP 15 sec, purified ganglion cells
Method: as §3, §1

[6] = 50 uM BzATP + 100 nM A3 agonist (30 min before and during), 24 hrs

Nc1ncnc2c1ncn2[C@@H]1O[C@H](COP(=O)(O)OP(=O)(O)OP(=O)(O)O)[C@@H](OC(=O)c2ccc(C(=O)c3ccccc3)cc2)[C@H]1O [BzATP]
increase in absorbance at 360 nm (glutamate release) ([1]; BzATP alone, 17 applications from 7 coverslips): 17.1±4.0%
mean levels of Ca2+ ([2]; first exposure to 50 μM BzATP alone, 15 sec): 647.0 ± 80.7 nM
mean levels of Ca2+ ([2]; third exposure to BzATP after removal of CI-IB-MECA): 600.3 ± 227.6 nM
ganglion cell survival, % of control ([3]; 50 μM BzATP alone, 24 hrs): 62.9 % of control and 68.9±2.3 % of control and 56.8 % of control and 79.0±2.9 % of control

CCOc1ccc(Nc2ccc(/C(=C3C=C/C(=[N+](/CC)Cc4cccc(S(=O)(=O)[O-])c4)C=C/3C)c3ccc(N(CC)Cc4cccc(S(=O)(=O)[O-])c4)cc3C)cc2)cc1.[Na+] [brilliant blue G]
net absorbance change (glutamate release) in response to BzATP ([1]; in presence of brilliant blue G, n=3): −0.9±0.9%

CNC(=O)C1OC(n2cnc3c(NCc4cccc(I)c4)nc(Cl)nc32)C(O)C1O (stereo not shown) [CI-IB-MECA, 2-chloro-N6-(3-iodobenzyl)-adenosine-5-N-methyluronamide]
block of Ca2+ increase, normalized to peak of first response ([2]; 100 nM CI-IB-MECA, 50 μM BzATP 15 sec): 81%
mean levels of Ca2+ ([2]; second BzATP application in presence of 100 nM CI-IB-MECA): 110.7 ± 32.8 nM
ganglion cell survival, % of control [3, 6]: 80.1±4.7 % of control
reduction in the number of dead cells / protection against cell death triggered by BzATP ([3]; 24 hrs): 54%
Kd [4]: > 100 µM

N[C@@H](CCCP(=O)(O)O)C(=O)O [APV, D-amino-phosphonovalerate]
block of Ca2+ response to BzATP ([5]; 100 μM APV): 36.1±7.5%
mean reduction of Ca2+ elevation triggered by BzATP ([2]; APV (100 μM in FIG. 2C, 300 μM in summary), 50 μM BzATP 15 sec): 39.7±12.6%
ganglion cell survival levels ([3]; 50 μM BzATP + APV, 24 hrs): 77.8±5.9%

C[C@]12N[C@H](Cc3ccccc31)c1ccccc12 [MK-801]
decrease of Ca2+ elevation triggered by BzATP ([5]; 10 μM MK-801): 50.1±5.5%
decrease of Ca2+ elevation triggered by BzATP ([2]; 10 μM MK-801, 50 μM BzATP 15 sec, peak vs mean response before and after): 55.1±6.5%
ganglion cell survival, % of control ([3]; 50 μM BzATP + 10 μM MK-801, 24 hrs): 102.7±3.2 % of control

CNC(=O)[C@H]1O[C@@H](n2cnc3c(NCc4cccc(I)c4)ncnc32)[C@H](O)[C@@H]1O [IB-MECA]
ganglion cell survival, % of control [3, 6]: 98.5±2.7 % of control
reduction in the number of dead cells / protection against cell death triggered by BzATP ([3]; 24 hrs): 95%

CC12CC3CC(C)(C1)CC(N)(C3)C2 [memantine]
inhibition at 30 µM ([5]; Rattus norvegicus, 30 μM memantine, read-out: inhibition of Ca2+ response to BzATP): 18.4 ± 4.2%
reduction of Ca2+ elevation triggered by BzATP ([2]; 30 μM memantine, in 4/7 experiments, effect variable, 50 μM BzATP): 65.5±6.7%
effect on ganglion cell survival ([3]; 50 μM BzATP + 100 μM memantine, 24 hrs): neuroprotective

CN[C@H](CC(=O)O)C(=O)O [NMDA, N-methyl-D-aspartate]
ganglion cell survival, % of control ([3]; 100 uM NMDA alone, 24 hrs): 69.9±3.2 % of control

Nc1ncnc2c1ncn2[C@@H]1O[C@H](CO)[C@@H](O)[C@H]1O [adenosine]
block of Ca2+ increase compared to BzATP alone ([2]; 300 uM adenosine, two minute 50 uM BzATP): 85%
effect on Ca2+ response to brief 50 uM BzATP ([2]; adenosine added with alternate BzATP applications, reversible, repeatable): greatly reduced the response
peak Ca2+ levels ([2]; two minute application of 50 uM BzATP in presence of 300 uM adenosine (2 min pretreatment), n=7): 215 ± 62 nM
ganglion cell survival ([3]; 50 μM BzATP + 300 uM adenosine (30 min before), 24 hours): 91.2±3.5%
ganglion cell survival, % of control ([3]; 50 μM BzATP + 1 mM adenosine, 24 hours): 92.4±2.5 % of control
ganglion cell counts, % of control ([3]; 100 uM NMDA + 300 uM adenosine, 24 hrs): 102.1±3.9 % of control
